#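 Compound exposure: 48 hours, 5 concentrations, 96-well plates. GI50 = concentration required for 50% inhibition of growth. TGI denotes the concentration required for complete inhibition of growth.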
# Key:
# Test in all cases: growth of human tumour cells (NCI), 48 h
# SNB-19 CNS = test system: SNB-19 CNS
# LOX IMVI melanoma = test system: LOX IMVI melanoma
# PC-3 prostate = test system: PC-3 prostate
# OVCAR-5 ovarian = test system: OVCAR-5 ovarian
# OVCAR-3 ovarian = test system: OVCAR-3 ovarian
# MCF7 breast = test system: MCF7 breast
# A549 NSCLC = test system: A549 NSCLC
# ACHN renal = test system: ACHN renal
# HOP-92 NSCLC = test system: HOP-92 NSCLC
# HT29 colon = test system: HT29 colon
Structure (SMILES),TGI (SNB-19 CNS),TGI (LOX IMVI melanoma),TGI (PC-3 prostate),TGI (OVCAR-5 ovarian),TGI (OVCAR-3 ovarian),TGI (MCF7 breast),TGI (A549 NSCLC),TGI (ACHN renal),TGI (HOP-92 NSCLC),TGI (HT29 colon),GI50 (LOX IMVI melanoma),GI50 (HT29 colon)
Oc1ccccc1/C=N/c1nc2cc3sc(/N=C/c4ccccc4O)nc3cc2s1,> 100 µM,> 100 µM,> 100 µM,> 100 µM,> 100 µM,> 100 µM,> 100 µM,> 100 µM,> 100 µM,> 100 µM,–,–
CCOC(=N)n1c(=O)n(C2=NCCN2)c2ccccc21,> 100 µM,> 100 µM,> 100 µM,> 100 µM,> 100 µM,> 100 µM,> 100 µM,> 100 µM,> 100 µM,> 100 µM,–,–
CCOC(=O)c1c(-c2ccc(OC)cc2)c(C#N)c(=S)n(C2OC(COC(C)=O)C(OC(C)=O)C(OC(C)=O)C2OC(C)=O)c1C (configuration not stated),> 100 µM,> 100 µM,> 100 µM,> 100 µM,> 100 µM,> 100 µM,> 100 µM,> 100 µM,83.4 µM,> 100 µM,–,–
COc1cc(C2CC(C)(Nc3ccccc3)Oc3cc4c(cc32)OCO4)cc(OC)c1OC (configuration not stated),> 100 µM,> 100 µM,> 100 µM,> 34.3 µM,3.52 µM,> 51.5 µM,> 100 µM,> 90.7 µM,> 100 µM,0.619 µM,–,–
C=CCn1c(=O)ccn(COCCO)c1=O,> 100 µM,> 100 µM,> 100 µM,> 100 µM,> 100 µM,> 100 µM,> 100 µM,> 100 µM,> 100 µM,> 100 µM,–,–
CC(=O)N/N=C1\NC(=O)C[C@H]2[C@@H]3CC=C4C[C@@H](OC(C)=O)CC[C@]4(C)[C@H]3CC[C@]12C,39.9 µM,> 100 µM,> 100 µM,> 100 µM,> 100 µM,> 100 µM,> 100 µM,52.7 µM,31.9 µM,> 100 µM,–,–
CN(C)Cc1cc(C(=O)/C=C/c2ccc(O)cc2)cc(CN(C)C)c1O,> 100 µM,> 100 µM,> 100 µM,> 100 µM,56.2 µM,> 100 µM,> 100 µM,53.3 µM,> 100 µM,> 100 µM,–,–
CCN(CC)CCOc1ccc(N2C(=O)c3cc(OC)c(OC)cc3C2=O)cc1,> 100 µM,> 100 µM,> 100 µM,> 100 µM,> 100 µM,> 100 µM,> 100 µM,> 100 µM,> 100 µM,> 100 µM,–,–
Clc1ccc(-c2nn3c(-c4ccncc4)nnc3s2)cc1,> 100 µM,> 100 µM,> 100 µM,> 100 µM,> 100 µM,> 100 µM,> 100 µM,> 100 µM,> 100 µM,> 100 µM,–,–
CC1CC[C@@]2(OC1)OC1C[C@H]3[C@@H]4CC[C@H]5CC(OC6OC(CO)C(OC7OC(CO)C(O)C(O)C7OC7OC(CO)C(O)C(O)C7O)C(O)C6O)CCC5(C)[C@H]4CCC3(C)C1[C@@H]2C (some centres not stated),10.3 µM,5.85 µM,1.52 µM,8.08 µM,5.94 µM,2.26 µM,7.93 µM,6.06 µM,11.8 µM,1.86 µM,–,–
O=P(c1ccccc1)(c1ccccc1)N1O[C@@H](c2ccccc2)C=C[C@H]1c1ccccc1,30 µM,24.1 µM,11.7 µM,32.1 µM,27.8 µM,12.6 µM,24 µM,21.9 µM,25.6 µM,26.5 µM,–,–
NNC(=O)c1ccc[n+](CCc2ccccc2)c1,> 100 µM,> 100 µM,> 100 µM,> 100 µM,> 100 µM,> 100 µM,> 100 µM,> 100 µM,> 100 µM,> 100 µM,–,–
C=C[C@@H]1C(CO)=CCC2[C@H]1CCC1C(C)(C)C(=O)CC[C@]21C (some centres not stated),> 100 µM,> 100 µM,> 100 µM,> 100 µM,> 100 µM,> 100 µM,> 100 µM,> 100 µM,> 100 µM,> 100 µM,–,–
CC(C)/C(Cl)=N\OC(=O)Nc1ccc(C#N)cc1,33.7 µM,13.2 µM,30.1 µM,28.4 µM,30.5 µM,22.4 µM,39.9 µM,19 µM,2.98 µM,43 µM,–,–
O=C1CN2C(c3ccccc3)=NN(c3ccc([N+](=O)[O-])cc3)C2(c2ccccc2)c2cc(Cl)ccc2N1CC1CC1 (configuration not stated),> 100 µM,> 100 µM,> 100 µM,> 100 µM,> 100 µM,> 100 µM,> 100 µM,> 100 µM,> 100 µM,> 100 µM,–,–
CN(C)CCCN1C(=S)N(CCCN(C)C)c2c3cc(O)ccc3nc3c([N+](=O)[O-])ccc1c23,13.9 µM,5.9 µM,13.3 µM,28.5 µM,5.56 µM,6.77 µM,9.73 µM,11 µM,16.1 µM,6.31 µM,–,–
O=C(NCCN1CCOCC1)c1ccc2cc(C(=O)N3CC(CCl)c4ccc([N+](=O)[O-])cc43)[nH]c2c1 (configuration not stated),28.8 µM,> 100 µM,48.8 µM,> 100 µM,33.1 µM,> 100 µM,26.1 µM,45.2 µM,38.4 µM,24.7 µM,–,–
CC(C)COP(=O)(OCC(C)C)C(NS(=O)(=O)c1ccccc1)(C(F)(F)F)C(F)(F)F,54.1 µM,13.6 µM,31.7 µM,38.1 µM,23.8 µM,> 100 µM,14.4 µM,10.2 µM,7.64 µM,25.4 µM,–,–
O=C1/C(=C\c2cccc(Oc3ccccc3)c2)S(=O)(=O)C(c2ccccc2)N1Cc1ccccc1 (configuration not stated),55.6 µM,62.9 µM,> 100 µM,> 100 µM,34.2 µM,> 100 µM,> 100 µM,49.4 µM,73.3 µM,–,–,–
CCN(C(=S)N[C@@H](Cc1ccccc1)C(=O)N[C@@H](CC(C)C)C(=O)OC)c1ccccc1,> 100 µM,> 100 µM,> 100 µM,> 100 µM,> 100 µM,> 100 µM,> 100 µM,> 100 µM,> 100 µM,> 100 µM,–,–
COc1cc(C2SCC(=O)N2c2ccc(NC(=O)c3ccc(N4C(=O)CSC4c4cc(OC)c(OC)c(OC)c4)cc3)cc2)cc(OC)c1OC (configuration not stated),> 100 µM,> 100 µM,> 100 µM,> 100 µM,> 100 µM,> 100 µM,> 100 µM,> 100 µM,79.1 µM,> 100 µM,–,–

Structure (SMILES),TGI (SNB-19 CNS),TGI (LOX IMVI melanoma),TGI (PC-3 prostate),TGI (OVCAR-5 ovarian),TGI (OVCAR-3 ovarian),TGI (MCF7 breast),TGI (A549 NSCLC),TGI (ACHN renal),TGI (HOP-92 NSCLC),TGI (HT29 colon),GI50 (LOX IMVI melanoma),GI50 (HT29 colon)
O=C(c1cc2ccccc2cc1O)N1CCCCC1,> 100 µM,> 100 µM,> 100 µM,–,–,> 100 µM,–,> 100 µM,43.3 µM,> 100 µM,–,–
C/C(CC1C2CCCC1C2)=N\NC(N)=O (configuration not stated),> 100 µM,> 100 µM,> 100 µM,> 100 µM,> 100 µM,> 100 µM,> 100 µM,> 100 µM,> 100 µM,> 100 µM,–,–
N#CCCN(CCC#N)c1ccc(/C=C2\N=C(c3ccccc3)N(c3ccc(Cl)cc3)C2=O)cc1,> 100 µM,> 100 µM,> 100 µM,> 100 µM,> 100 µM,> 100 µM,> 100 µM,> 100 µM,> 100 µM,> 100 µM,–,–
O=c1cc(N=P(c2ccccc2)(c2ccccc2)c2ccccc2)n(-c2ccccc2)c(=O)n1-c1ccccc1,63.5 µM,49.5 µM,18.6 µM,> 100 µM,32.3 µM,34.3 µM,24.6 µM,45.4 µM,47.5 µM,> 100 µM,–,–
O=c1c2cc3c(cc2[nH]c2ncccc12)OCO3,> 10 µM,> 10 µM,> 10 µM,> 10 µM,> 10 µM,> 10 µM,> 10 µM,> 10 µM,> 10 µM,> 10 µM,–,–
Cc1c(S(=O)(=O)/N=C(\N)Nc2ccc(Cl)cc2)sc2ccc(Cl)cc12,57.4 µM,36.3 µM,28.2 µM,38.1 µM,36.5 µM,35.8 µM,46.8 µM,32.2 µM,42.2 µM,38.8 µM,–,–
O=c1c2ccccc2nc2[nH][nH]c(=S)n12,> 100 µM,> 100 µM,> 100 µM,> 100 µM,> 100 µM,> 100 µM,> 100 µM,> 100 µM,> 100 µM,> 100 µM,–,–
CCCn1c(CN(Cc2nc3ccccc3n2CCC)Cc2nc3ccccc3n2CCC)nc2ccccc21,> 100 µM,18.9 µM,18.9 µM,> 89.9 µM,> 30.4 µM,> 29.2 µM,> 64.4 µM,> 100 µM,13.3 µM,> 41.1 µM,–,–
CN(C)c1nc(=NCc2ccccc2)ss1,> 10 µM,> 10 µM,> 10 µM,> 10 µM,> 10 µM,> 10 µM,> 10 µM,> 10 µM,> 10 µM,> 10 µM,–,–
COc1ccc(C(OCC2OC(n3cc(C)c(=O)[nH]c3=O)CC2n2cc(Cn3cc(F)c(=O)[nH]c3=O)nn2)(c2ccccc2)c2ccccc2)cc1 (configuration not stated),22.8 µM,> 100 µM,31.3 µM,35.5 µM,19.6 µM,34.7 µM,> 100 µM,27.2 µM,19.5 µM,> 100 µM,–,–
O=c1oc(-c2ccc(O)c(O)c2)cc2cccc(O)c12,> 76.9 µM,37.2 µM,47.3 µM,86.5 µM,> 62.4 µM,> 54.1 µM,> 100 µM,> 81.7 µM,43.4 µM,> 100 µM,12.5 µM,28.1 µM
Nc1c(-c2cccc3ccccc23)c2ccc([N+](=O)[O-])cc2c(=O)n1-c1nc2ccccc2s1,> 49.4 µM,> 35.5 µM,> 35.3 µM,> 41.2 µM,> 37 µM,7.84 µM,> 53.4 µM,> 100 µM,> 55.5 µM,19.9 µM,–,–
CC(C)(C)NC(=O)/C(=C\Sc1ccccc1)c1ccc2c(c1)OCO2,> 100 µM,48.9 µM,73.7 µM,> 100 µM,> 100 µM,60.6 µM,> 100 µM,> 100 µM,55.1 µM,35.9 µM,–,–
Brc1cccc(Nc2nc(-c3cccs3)nc3ccc(Br)cc23)c1,98.7 µM,> 100 µM,> 100 µM,98.2 µM,82.1 µM,> 100 µM,> 100 µM,91 µM,> 100 µM,53 µM,–,–
COc1ccc(C#CC(=O)O)c(OC)c1,> 100 µM,> 100 µM,> 100 µM,> 100 µM,> 100 µM,> 100 µM,> 100 µM,> 100 µM,> 100 µM,> 100 µM,–,–
CSc1c(C#N)c(N)n2c1C(=O)N(c1ccccc1)C2=S,> 100 µM,> 100 µM,> 100 µM,> 100 µM,> 100 µM,> 100 µM,> 100 µM,> 100 µM,> 100 µM,> 100 µM,–,–
CN(C)C(=S)S,> 100 µM,> 100 µM,> 100 µM,> 100 µM,28.3 µM,> 100 µM,> 100 µM,> 100 µM,> 100 µM,> 100 µM,–,–
O=C1C[C@H](Sc2ccccc2)C2(OCCO2)[C@@H](Sc2ccccc2)C1,> 43.6 µM,2.17 µM,13.8 µM,12.3 µM,7.94 µM,6.01 µM,28 µM,5.62 µM,5.74 µM,3.7 µM,–,–
COc1ccc2nc3cc(Cl)ccc3c(NCCCNCCCNc3c4ccc(Cl)cc4nc4ccc(OC)cc34)c2c1,0.314 µM,0.0145 µM,0.182 µM,0.237 µM,0.61 µM,0.157 µM,0.165 µM,0.174 µM,0.347 µM,0.231 µM,–,–
c1ccc2c(c1)NC(C1OC3CCCN3C1C1Nc3ccccc3S1)S2 (configuration not stated),> 100 µM,–,> 100 µM,> 100 µM,> 100 µM,> 100 µM,> 100 µM,> 100 µM,> 100 µM,> 100 µM,–,–

# Source: PubChem BioAssay (NCI)
